Measured values from US7745152B2, “Method for determining genotoxicity” (priority 2004, dated 2010).
Counter-ions that a name gives are not always drawn. Like-named read-outs stand apart in the source and are kept apart here. Values belong to the molecule of their own block, whether it stands above or below them. *1 amine or outer side, *2 acyl side, *3 side chain or, on linkers, in order; H or OH if unused. Where a SMILES comes first, the peptide text is derived from it. Bridges are numbered along the chain shown (N, C = ends). Roman numbers before positions name the chains, in order. [ ]: non-standard residue; d: D form. Actinocin(9to1) = Cc1c2oc3c(C)ccc(C(=O)[*:1])c3nc-2c(C(=O)[*:2])c(N)c1=O; NMeV = CN[C@H](C(=O)O)C(C)C; Sar = CNCC(=O)O

Tests used:
C2C12 cells [1] = system: C2C12 cells
DDA3 = settings: cited from earlier work
C2C12 cells [2] = assay: Genomic assay: gene expression analysis (Affymetrix Murine Genome MOE430) in C2C12 cells induced to differentiate
[3] = C2C12, 24 h drug (μg/ml: BLEO 0.5, CIS 0.6, ETOP 0.5, MMS 0.008, MNNG 4, VINC 0.6), then 6, 18 or 24 h differentiation, vs DMSO

Molecule: O=[N+]([O-])c1ccc2c(c1)Cc1ccccc1-2 [2-nitrofluorene]
Lowest effective dose (C2C12 cells [1]; mouse): 5.2 µg/mL

Molecule: O=c1[nH]cc(F)c(=O)[nH]1 [5-fluorouracil]
Lowest effective dose (C2C12 cells [1]; mouse, 24 h): 0.0008 µg/mL

Molecule: Cc1c2oc3c(C)ccc(C(=O)N[C@@H]4C(=O)N[C@H](C(C)C)C(=O)N5CCC[C@H]5C(=O)N(C)CC(=O)N(C)[C@@H](C(C)C)C(=O)O[C@@H]4C)c3nc-2c(C(=O)N[C@@H]2C(=O)N[C@H](C(C)C)C(=O)N3CCC[C@H]3C(=O)N(C)CC(=O)N(C)[C@@H](C(C)C)C(=O)O[C@@H]2C)c(N)c1=O [Actinomycin D] (I: T[dV]P[Sar][NMeV] / II: T[dV]P[Sar][NMeV]; ester I:1-I:C, II:1-II:C; linker I:N-II:N via Actinocin(9to1))
Lowest effective dose (C2C12 cells [1]): 0.00075 µg/mL

Molecule: N.N.[Cl][Pt][Cl] [Cisplatin]
Lowest effective dose (C2C12 cells [1]): 0.15 µg/mL
extreme block of differentiation: cell death in differentiation media (C2C12 cells [1]): the cells begin to die after 3 days in differentiation media

Molecule: CO[C@@]12[C@H](COC(N)=O)C3=C(C(=O)C(C)=C(N)C3=O)N1C[C@@H]1N[C@@H]12 [Mitomycin C]
DDA3 expression in NIH3T3 cells exposed to DNA damaging agents (DDA3): upregulated

Molecule: CC[C@]1(O)C[C@H]2CN(CCc3c([nH]c4ccccc34)[C@@](C(=O)OC)(c3cc4c(cc3OC)N(C=O)[C@H]3[C@@](O)(C(=O)OC)[C@H](OC(C)=O)[C@]5(CC)C=CCN6CC[C@]43[C@@H]65)C2)C1 [Vincristine sulfate]
Lowest effective dose (C2C12 cells [1]; mouse, 24 h): 0.002 µg/mL
Fold change in expression: 0610013D04 Rik, RIKEN cDNA (C2C12 cells [2]; [3]): 2.00 fold
Fold change in expression: 1600013K19 Rik, RIKEN cDNA (C2C12 cells [2]; [3]): 0.98 fold
Fold change in expression: 2610005B21 Rik, RIKEN cDNA (C2C12 cells [2]; [3]): 0.81 fold
Fold change in expression: 2610019I03 RIK, RIKEN cDNA (C2C12 cells [2]; [3]): 0.76 fold
Fold change in expression: 2610509G12 Rik, RIKEN cDNA (C2C12 cells [2]; [3]): 0.55 fold
Fold change in expression: 2810417H13 Rik, RIKEN cDNA (C2C12 cells [2]; [3]): 0.96 fold
Fold change in expression: 4833427G06 Rik, RIKEN cDNA (C2C12 cells [2]; [3]): 0.98 fold
Fold change in expression: 6530401L14 Rik, RIKEN cDNA (C2C12 cells [2]; [3]): 0.53 fold
Fold change in expression: 9030617O03 Rik, RIKEN cDNA (C2C12 cells [2]; [3]): 1.20 fold
Fold change in expression: Anxa8, Annexin A8 (C2C12 cells [2]; [3]): 1.80 fold
Fold change in expression: Asflb, ASF1 anti-silencing function 1 homolog B (Saccharomyces) (C2C12 cells [2]; [3]): 0.71 fold
Fold change in expression: Birc5, Baculoviral IAP repeat-containing 5 (C2C12 cells [2]; [3]): 0.87 fold
Fold change in expression: Brca1, Breast cancer 1 (C2C12 cells [2]; [3]): 0.51 fold
Fold change in expression: Calmbp1, Calmodulin binding protein 1 (C2C12 cells [2]; [3]): 0.40 fold
Fold change in expression: Capn6, Calpain 6 (C2C12 cells [2]; [3]): 0.83 fold
Fold change in expression: Ccna2, Cyclin A2 (C2C12 cells [2]; [3]): 0.82 fold
Fold change in expression: Ccng1, Cyclin G1 (C2C12 cells [2]; [3]): 1.80 fold
Fold change in expression: Cilp, Cartilage intermediate layer pro (C2C12 cells [2]; [3]): 0.77 fold
Fold change in expression: Cks2, CDC28 protein kinase regulatory subunit 2 (C2C12 cells [2]; [3]): 0.78 fold
Fold change in expression: D4Ertd421e, DNA segment, Chr 4, ERATO Doi 421, expressed (C2C12 cells [2]; [3]): 0.64 fold
Fold change in expression: Dda3-pending, Differential display and activated by p53 (C2C12 cells [2]; [3]): 2.00 fold
Fold change in expression: E2f7, E2F transcription factor 7 (C2C12 cells [2]; [3]): 0.63 fold
Fold change in expression: E030024M05 Rik, RIKEN cDNA (C2C12 cells [2]; [3]): 1.20 fold
Fold change in expression: E130315B21 Rik, RIKEN cDNA (C2C12 cells [2]; [3]): 0.70 fold
Fold change in expression: Ephx1, Epoxide hydrolase 1 (microsomal xenobiotic hydrolase) (C2C12 cells [2]; [3]): 1.10 fold
Fold change in expression: Fbxo5, f-box only protein 31 (C2C12 cells [2]; [3]): 0.54 fold
Fold change in expression: Foxm1, Forkhead box M1 (C2C12 cells [2]; [3]): 0.68 fold
Fold change in expression: Gmnn, Geminin (C2C12 cells [2]; [3]): 0.65 fold
Fold change in expression: Gnpi, Glucosamine-6-phosphate deaminase (C2C12 cells [2]; [3]): 1.60 fold
Fold change in expression: Hgf, Hepatocyte growth factor (scatter factor) (C2C12 cells [2]; [3]): 2.00 fold
Fold change in expression: Hmgb2, High mobility group box 2 (C2C12 cells [2]; [3]): 0.57 fold
Fold change in expression: Hmgb3, High mobility group box 3 (C2C12 cells [2]; [3]): 0.67 fold
Fold change in expression: Hmmr, Hyaluronan mediated motility receptor (RHAMM) (C2C12 cells [2]; [3]): 0.52 fold
Fold change in expression: Kifl1, Kinesin 11 (C2C12 cells [2]; [3]): 0.46 fold
Fold change in expression: Lek1, Leucine, glutamic acid, lysine family 1 protein (C2C12 cells [2]; [3]): 0.45 fold
Fold change in expression: Ly6e, Lymphocyte antigen 6 complex, locus E (C2C12 cells [2]; [3]): 1.30 fold
Fold change in expression: M-phosph1, M-phase phosphoprotein (C2C12 cells [2]; [3]): 0.37 fold
Fold change in expression: MGC:32192, Mus musculus cDNA clone MGC: 32192 IMAGE: 5006129 (C2C12 cells [2]; [3]): 0.71 fold
Fold change in expression: Mad2l1, MAD2 (mitotic arrest deficient, homolog)-like 1 (yeast) (C2C12 cells [2]; [3]): 0.64 fold
Fold change in expression: Mad3, Max dimerization protein 3 (C2C12 cells [2]; [3]): 0.89 fold
Fold change in expression: Mcm3, Minichromosome maintenance deficient 3 (Saccharomyces) (C2C12 cells [2]; [3]): 0.69 fold
Fold change in expression: Mcmd4, Minichromosome maintenance deficient 4 homolog (C2C12 cells [2]; [3]): 0.64 fold
Fold change in expression: Mki67, Antigen identified by MAb Ki67 (C2C12 cells [2]; [3]): 0.43 fold
Fold change in expression: Mmhead, Mus musculus 15 day embryo head cDNA clone (C2C12 cells [2]; [3]): 0.95 fold
Fold change in expression: Nos3, Nitric oxide synthase 3, endothelial cell (C2C12 cells [2]; [3]): 1.30 fold
Fold change in expression: Np95, Nuclear protein 95 (C2C12 cells [2]; [3]): 0.71 fold
Fold change in expression: Nusap1, Nucleolar and spindle associated protein 1 (C2C12 cells [2]; [3]): 0.56 fold
Fold change in expression: Osbp16, Oxysterol binding protein-like 6 (C2C12 cells [2]; [3]): 1.10 fold
Fold change in expression: Pbk, PDZ binding kinase (C2C12 cells [2]; [3]): 0.62 fold
Fold change in expression: Pcna, Proliferating cell nuclear antigen (C2C12 cells [2]; [3]): 0.70 fold
Fold change in expression: Phex, Phosphate regulating neutral endopeptidase (X chromosome) (C2C12 cells [2]; [3]): 0.67 fold
Fold change in expression: Plf, Proliferin (C2C12 cells [2]; [3]): 1.10 fold
Fold change in expression: Pola1, DNA polymerase alpha 1, 180 kDa (C2C12 cells [2]; [3]): 0.51 fold
Fold change in expression: Prc1, Protein regulator of cytokinesis 1 (C2C12 cells [2]; [3]): 0.63 fold
Fold change in expression: Prelp, Proline arginine-rich end leucine-rich repeat (C2C12 cells [2]; [3]): 0.58 fold
Fold change in expression: Prim1, DNA primase, p49 subunit (C2C12 cells [2]; [3]): 0.54 fold
Fold change in expression: Rad51ap1, RAD51-associated protein 1 (C2C12 cells [2]; [3]): 0.59 fold
Fold change in expression: Rbl1, Retinoblastoma-like 1 (p107) (C2C12 cells [2]; [3]): 0.67 fold
Fold change in expression: Serpine1, Ser (or Cys) proteinase inhibitor, clade E, member 1 (C2C12 cells [2]; [3]): 1.00 fold
Fold change in expression: Sesn2, Sestrin 2 (C2C12 cells [2]; [3]): 2.38 fold
Fold change in expression: Shcbp1, Shc SH2-domain binding protein 1 (C2C12 cells [2]; [3]): 0.52 fold
Fold change in expression: Slc35a5, Solute carrier family 35, member A5 (C2C12 cells [2]; [3]): 1.30 fold
Fold change in expression: Smc2l1, SMC2 structural maintenance of chromosomes 2-like 1 (C2C12 cells [2]; [3]): 0.75 fold
Fold change in expression: Stk18, Serine/threonine kinase 18 (C2C12 cells [2]; [3]): 0.63 fold
Fold change in expression: Tacc3, Transforming, acidic coiled-coil containing protein 3 (C2C12 cells [2]; [3]): 0.73 fold
Fold change in expression: Tagln, Transgelin (smooth muscle 22 protein) (C2C12 cells [2]; [3]): 0.84 fold
Fold change in expression: Tk1, Thymidine kinase 1 (C2C12 cells [2]; [3]): 0.62 fold
Fold change in expression: Top2a, Topoisomerase (DNA) II alpha (C2C12 cells [2]; [3]): 0.52 fold
Fold change in expression: Trp53inp1, Transformation related protein, 53 inducible nuclear protein 1 (C2C12 cells [2]; [3]): 1.60 fold
Fold change in expression: Usp30, Ubiquitin specific protease 30 (C2C12 cells [2]; [3]): 2.00 fold
Fold change in expression: Wig1, Wild-type p53-induced gene 1 (C2C12 cells [2]; [3]): 1.20 fold
pattern of gene expression changes (C2C12 cells [2]; C2C12, vincristine sulfate 0.6 μg/ml 24 h, relative to the five other drugs tested): induced a distinct pattern of gene expression changes relative to the five other drugs tested
Fold change in expression: Slc19a2, Solute carrier family 19 (thiamine transporter), member 2 (C2C12 cells [2]; first Slc19a2 entry (r16), C2C12, 24 h drug (μg/ml: BLEO 0.5, CIS 0.6, ETOP 0.5, MMS 0.008, MNNG 4, VINC 0.6), then 6, 18 or 24 h differentiation, vs DMSO): 1.40 fold
Fold change in expression: Slc19a2, Solute carrier family 19 (thiamine transporter), member 2 (C2C12 cells [2]; second Slc19a2 entry (r72), C2C12, 24 h drug (μg/ml: BLEO 0.5, CIS 0.6, ETOP 0.5, MMS 0.008, MNNG 4, VINC 0.6), then 6, 18 or 24 h differentiation, vs DMSO): 1.10 fold

Molecule: COc1cccc2c1C(=O)c1c(O)c3c(c(O)c1C2=O)C[C@@](O)(C(=O)CO)C[C@@H]3O[C@H]1C[C@H](N)[C@H](O)[C@H](C)O1 [adriamycin]
DDA3 expression in NIH3T3 cells exposed to DNA damaging agents (DDA3): upregulated

Molecule: Bleomycin sulfate
Lowest effective dose (C2C12 cells [1]): 1 µg/mL

Second part, the molecule after the results:

Lowest effective dose (C2C12 cells [1]; mouse, 24 h): 1.8 µg/mL
Molecule: CC/C(=C(/CC)c1ccc(O)cc1)c1ccc(O)cc1 [Diethylstilbestrol (DES), Diethylstilbestrol]

Lowest effective dose (C2C12 cells [1]; mouse, 24 h): 0.005 µg/mL
Molecule: COc1cccc2c1C(=O)c1c(O)c3c(c(O)c1C2=O)C[C@@](O)(C(=O)CO)C[C@@H]3O[C@H]1C[C@H](N)[C@H](O)[C@H](C)O1 [Doxorubicin HCl]

Lowest effective dose (C2C12 cells [1]; mouse, 24 h): 100 µg/mL
Molecule: CCOS(C)(=O)=O [Methanesulfonate ethyl ester (EMS), Methanesulfonate ethyl ester]

Lowest effective dose (C2C12 cells [1]; mouse, 24 h): 0.002 µg/mL
Molecule: CC(=O)O[C@H]1C(=O)[C@@]2(C)[C@H]([C@H](OC(=O)c3ccccc3)[C@]3(O)C[C@H](OC(=O)[C@H](O)[C@@H](NC(=O)c4ccccc4)c4ccccc4)C(C)=C1C3(C)C)[C@]1(OC(C)=O)CO[C@@H]1C[C@@H]2O [Paclitaxel]
